According to patent US8022206B2 (OSI Pharmaceuticals, LLC, priority 2008, dated 2011):

These compounds were tested against RON (human) (Homo sapiens, UniProt Q04912) (assay: RON (human) AlphaScreen kinase assay, Km of ATP). Conditions: AlphaScreen, Km of ATP; read-out: RON biochemical IC50.
Format: biochemical
Protocol: Someone skilled in the art will appreciate that a variety of assay formats may be used to determine the activity of the compounds of this invention. For example, AlphaScreen (Amplified Luminescent Proximity Homogeneous Assay) technology was used with the kinases described below. Assay ATP concentrations for individual kinases are included in the text.
Desired compound is added in a final concentration of 1% DMSO with control being vehicle of DMSO alone. […] Enzyme is added to initiate the reaction and incubated for 30 min at RT. In subdued light, appropriate amount of PT66 donor and acceptor beads (diluted 1:260 from manufacturer's provision in a 25 mM Tris HCl (pH=7.5), 200 mM NaCl, 100 mM EDTA, 0.3% BSA buffer) are added to the wells. The plates, incubated for 1 h, are read on an AlphaQuest plate reader.

Chain of RON (human) (Q04912 25-1400): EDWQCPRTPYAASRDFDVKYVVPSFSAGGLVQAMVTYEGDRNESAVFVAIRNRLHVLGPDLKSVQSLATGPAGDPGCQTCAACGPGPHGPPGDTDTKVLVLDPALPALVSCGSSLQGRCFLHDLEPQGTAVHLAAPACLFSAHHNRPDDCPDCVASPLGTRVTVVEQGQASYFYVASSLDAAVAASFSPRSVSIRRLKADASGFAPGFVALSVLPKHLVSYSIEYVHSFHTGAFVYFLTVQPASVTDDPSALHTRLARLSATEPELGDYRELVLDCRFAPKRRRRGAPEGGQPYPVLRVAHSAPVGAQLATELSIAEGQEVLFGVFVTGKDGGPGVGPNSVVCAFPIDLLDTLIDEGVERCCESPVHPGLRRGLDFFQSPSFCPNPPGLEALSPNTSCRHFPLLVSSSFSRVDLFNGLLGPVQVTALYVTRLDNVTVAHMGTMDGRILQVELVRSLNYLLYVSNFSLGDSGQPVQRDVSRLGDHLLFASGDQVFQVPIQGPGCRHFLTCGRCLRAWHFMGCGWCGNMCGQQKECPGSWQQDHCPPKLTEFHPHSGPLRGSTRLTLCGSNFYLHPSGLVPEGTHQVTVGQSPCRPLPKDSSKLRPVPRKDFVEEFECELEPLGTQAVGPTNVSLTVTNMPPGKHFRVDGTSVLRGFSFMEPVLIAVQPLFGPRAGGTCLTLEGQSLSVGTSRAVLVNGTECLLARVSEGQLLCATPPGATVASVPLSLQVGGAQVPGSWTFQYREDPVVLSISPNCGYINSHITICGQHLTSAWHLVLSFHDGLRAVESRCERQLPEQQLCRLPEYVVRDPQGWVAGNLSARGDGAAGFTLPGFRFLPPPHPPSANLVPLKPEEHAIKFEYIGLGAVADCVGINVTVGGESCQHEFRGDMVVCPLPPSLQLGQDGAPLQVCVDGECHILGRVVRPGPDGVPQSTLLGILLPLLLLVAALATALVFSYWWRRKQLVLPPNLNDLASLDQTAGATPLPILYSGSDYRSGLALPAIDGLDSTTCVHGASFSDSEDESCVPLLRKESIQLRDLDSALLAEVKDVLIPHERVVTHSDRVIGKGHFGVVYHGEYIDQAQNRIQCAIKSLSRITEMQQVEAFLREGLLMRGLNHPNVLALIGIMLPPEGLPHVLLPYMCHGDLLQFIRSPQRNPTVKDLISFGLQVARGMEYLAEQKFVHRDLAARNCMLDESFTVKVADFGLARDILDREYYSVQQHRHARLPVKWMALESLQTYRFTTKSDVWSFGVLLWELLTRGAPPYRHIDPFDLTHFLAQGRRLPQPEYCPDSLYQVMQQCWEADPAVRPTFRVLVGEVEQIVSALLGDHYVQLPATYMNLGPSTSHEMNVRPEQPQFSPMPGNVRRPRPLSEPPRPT

SMILES | IC50 [nM]
CC(Oc1c(N)ncc2c(-c3cnn(C4CCNCC4)c3)coc12)c1cccc(F)c1Cl (stereo not drawn) [Example 351, 7-[1-(2-Chloro-3-fluorophenyl)ethoxy]-3-(1-piperidin-4-yl-1H-pyrazol-4-yl)-furo[3,2-c]pyridin-6-ylamine] | 500 to 5000
COC(=O)N1CC=C(c2coc3c(O[C@H](C)c4c(Cl)ccc(F)c4Cl)c(N)ncc23)CC1 [Example 50, 4-{6-Amino-7-[(R)-1-(2,6-dichloro-3-fluorophenyl)-ethoxy]-furo[3,2-c]pyridin-3-yl}-3,6-dihydro-2H-pyridine-1-carboxylic acid methyl ester] | 500 to 5000
CC(=O)N1CCC(n2cc(-c3coc4c(O[C@H](C)c5c(Cl)ccc(F)c5Cl)c(N)ncc34)cn2)CC1 [Example 276, 1-[4-(4-{6-Amino-7-[(1R)-1-(2,6-dichloro-3-fluorophenyl)ethoxy]furo[3,2-c]pyridin-3-yl}-1H-pyrazol-1-yl)piperidin-1-yl]ethanone] | 500 to 5000
CC(=O)N1CC=C(c2coc3c(O[C@H](C)c4c(Cl)ccc(F)c4Cl)c(N)ncc23)CC1 [Example 12, 1-(4-{6-Amino-7-[(R)-1-(2,6-dichloro-3-fluorophenyl)-ethoxy]-furo[3,2-c]pyridin-3-yl}-3,6-dihydro-2H-pyridin-1-yl)-ethanone] | 500 to 5000
C[C@@H](Oc1c(N)ncc2c(-c3cccnc3)coc12)c1c(Cl)ccc(F)c1Cl [Example 126, 7-[(R)-(2,6-Dichloro-3-fluorophenyl)ethoxy]-3-pyridin-3-ylfuro[3,2-c]pyridin-6-ylamine] | 500 to 5000
C[C@@H](Oc1c(N)ncc2c(-c3cn[nH]c3)coc12)c1c(Cl)ccc(F)c1Cl [Example 6, 7-[(R)-1-(2,6-Dichloro-3-fluorophenyl)ethoxy]-3-(1H-pyrazol-4-yl)-furo[3,2-c]pyridin-6-ylamine] | 500 to 5000
CNC(=O)c1coc2c(O[C@H](C)c3c(Cl)ccc(F)c3Cl)c(N)ncc12 [Example 178, 6-Amino-7-[(R)-1-(2,6-dichloro-3-fluorophenyl)ethoxy]furo[3,2-c]pyridine-3-carboxylic acid methylamide] | 500 to 5000
CC(Oc1c(N)ncc2c(-c3cnn(C4CCNCC4)c3)coc12)c1cc(F)ccc1Cl (stereo not drawn) [Example 336, 7-[1-(2-Chloro-5-fluorophenyl)ethoxy]-3-(1-piperidin-4-yl-1H-pyrazol-4-yl)-furo[3,2-c]pyridin-6-ylamine] | 500 to 5000
Nc1ncc2c(-c3cnn(C4CCNCC4)c3)coc2c1OCc1c(Cl)ccc(F)c1Cl [Example 339, 7-(2,6-Dichloro-3-fluorobenzyloxy)-3-(1-piperidin-4-yl-1H-pyrazol-4-yl)-furo[3,2-c]pyridin-6-ylamine] | 500 to 5000
C[C@@H](Oc1c(N)ncc2c(C3=CCNCC3)coc12)c1c(Cl)ccc(F)c1Cl [Example 8, 7-[(R)-1-(2,6-Dichloro-3-fluorophenyl)ethoxy]-3-(1,2,3,6-tetrahydropyridin-4-yl)-furo[3,2-c]pyridin-6-ylamine] | 500 to 5000
CCCC(Oc1c(N)ncc2c(-c3cnn(C4CCNCC4)c3)coc12)c1c(Cl)ccc(F)c1Cl (stereo not drawn) [Example 357, 7-[1-(2,6-Dichloro-3-fluorophenyl)butoxy]-3-(1-piperidin-4-yl-1H-pyrazol-4-yl)furo[3,2-c]pyridin-6-ylamine] | < 500
C#CCC(Oc1c(N)ncc2c(-c3cnn(C4CCNCC4)c3)coc12)c1c(Cl)ccc(F)c1Cl (stereo not drawn) [Example 353, 7-[1-(2,6-Dichloro-3-fluorophenyl)but-3-ynyloxy]-3-(1-piperidin-4-yl-1H-pyrazol-4-yl)furo[3,2-c]pyridin-6-ylamine] | 500 to 5000
CNC(=O)N1CC=C(c2coc3c(O[C@H](C)c4c(Cl)ccc(F)c4Cl)c(N)ncc23)CC1 [Example 35, 4-{6-Amino-7-[(R)-1-(2,6-dichloro-3-fluorophenyl)-ethoxy]-furo[3,2-c]pyridin-3-yl}-3,6-dihydro-2H-pyridine-1-carboxylic acid methylamide] | 500 to 5000
C[C@@H](Oc1c(N)ncc2c(C3CCNCC3)coc12)c1c(Cl)ccc(F)c1Cl [Example 25, 7-[(R)-1-(2,6-Dichloro-3-fluorophenyl)-ethoxy]-3-piperidin-4-yl-furo[3,2-c]pyridin-6-ylamine] | 500 to 5000
C[C@@H](Oc1c(N)ncc2c(C3=CCN(C(=O)N(C)C)CC3)coc12)c1c(Cl)ccc(F)c1Cl [Example 26, 4-{6-Amino-7-[(R)-1-(2,6-dichloro-3-fluorophenyl)-ethoxy]-furo[3,2-c]pyridin-3-yl}-3,6-dihydro-2H-pyridine-1-carboxylic acid Dimethylamide] | 500 to 5000
C[C@@H](Oc1c(N)ncc2c(-c3ccccn3)coc12)c1c(Cl)ccc(F)c1Cl [Example 137, 7-[(R)-1-(2,6-Dichloro-3-fluorophenyl)-ethoxy]-3-pyridin-2-ylfuro[3,2-c]pyridin-6-ylamine] | 500 to 5000

The remaining lines, values ahead:

IC50 [nM] | SMILES
< 500 | CC(Oc1c(N)ncc2c(-c3cnn(C4CCNCC4)c3)coc12)c1c(Cl)c(F)cc(F)c1Cl (stereo not drawn) [Example 154, 7-[1-(2,6-Dichloro-3,5-difluorophenyl)ethoxy]-3-[1-(piperidin-4-yl)-1H-pyrazol-4-yl]furo[3,2-c]pyridin-6-amine]
< 500 | C=CCC(Oc1c(N)ncc2c(-c3cnn(C4CCNCC4)c3)coc12)c1c(Cl)ccc(F)c1Cl (stereo not drawn) [Example 358, 7-[1-(2,6-Dichloro-3-fluorophenyl)but-3-enyloxy]-3-(1-piperidin-4-yl-1H-pyrazol-4-yl)furo[3,2-c]pyridin-6-ylamine]
500 to 5000 | C[C@@H](Oc1c(N)ncc2c(-c3ccncc3)coc12)c1c(Cl)ccc(F)c1Cl [Example 127, 7-[(R)-(2,6-Dichloro-3-fluorophenyl)ethoxy]-3-pyridin-4-ylfuro[3,2-c]pyridin-6-ylamine]
500 to 5000 | C[C@@H](Oc1c(N)ncc2c(C3=CCN(S(N)(=O)=O)CC3)coc12)c1c(Cl)ccc(F)c1Cl [Example 141, 4-{6-Amino-7-[(1R)-1-(2,6-dichloro-3-fluorophenyl)ethoxy]furo[3,2-c]pyridin-3-yl}-3,6-dihydropyridine-1(2H)-sulfonamide]
500 to 5000 | C[C@@H](Oc1c(N)ncc2c(-c3ccccc3)coc12)c1c(Cl)ccc(F)c1Cl [Example 3, 7-[(R)-1-(2,6-dichloro-3-fluorophenyl)-ethoxy]-3-phenyl-furo[3,2-c]pyridin-6-ylamine]
< 500 | CC(Oc1c(N)ncc2c(-c3cnn(C4CCNCC4)c3)coc12)c1c(Cl)ccc(Cl)c1Cl (stereo not drawn) [Example 349, 3-(1-Piperidin-4-yl-1H-pyrazol-4-yl)-7-[1-(2,3,6-trichlorophenyl)-ethoxy]furo[3,2-c]pyridin-6-ylamine]
< 500 | CC(Oc1c(N)ncc2c(-c3cnn(C4CCNCC4)c3)coc12)c1c(Cl)cc(Cl)cc1Cl (stereo not drawn) [Example 364, 3-(1-Piperidin-4-yl-1H-pyrazol-4-yl)-7-[1-(2,4,6-trichlorophenyl)-ethoxy]furo[3,2-c]pyridin-6-ylamine]
< 500 | CCC(Oc1c(N)ncc2c(-c3cnn(C4CCNCC4)c3)coc12)c1c(Cl)ccc(F)c1Cl (stereo not drawn) [Example 350]
